Reference: US20100152100A1, “ACCELERATED THERAPY” (Gloucester Pharmaceuticals, Inc., priority 2008, published 2010)

Assays:
[1] = human, in vivo
[2] = Earlier clinical investigations of romidepsin: observed toxicities and deaths; conditions: early development; out of more than 450 patients
[3] = Accelerated romidepsin dosing, clinical trial experience (unit doses given intravenously over about one hour or less)
[4] = patient five, (Breast Cancer), 8 mg/m^2
[5] = patient four, (Breast Cancer), 8 mg/m^2
[6] = patient two, (Multiple Myeloma), 10 mg/m^2
[7] = patient, (Multiple Myeloma), 8 mg/m^2

## C/C=C1\NC(=O)[C@H]2CSSCC/C=C/[C@H](CC(=O)N[C@H](C(C)C)C(=O)N2)OC(=O)[C@H](C(C)C)NC1=O [romidepsin, (1S,4S,10S,16E,21R)-7-[(2Z)-ethylidene]-4,21-diisopropyl-2-oxa-12,13-dithia-5,8,20,23-tetraazabicyclo[8.7.6]tricos-16-ene-3,6,9,19,22-pentanone]
[1]
  serial serum troponin levels and multiple gated acquisition (MUGA) scans: consistently normal
  severity of observed toxicities: mild to moderate
[2]
  deaths during clinical investigations: 6
[3]; 15 patients on accelerated dosing regimens
  electrocardiogram findings, lab abnormalities, adverse events, and serious adverse events overall: consistent with the results seen in prior clinical trials utilizing romidepsin
[3]; [4]
  Clinically Significant Lab Abnormalities: None
  Related SAEs: None
[3]; patient five, (Breast Cancer), 8 mg/m^2, full wrapped cell: Nonspecific T wave changes, low QRS voltages, tachycardia, possible anterior infarction, left atrial abnormality
  ECG Findings (Machine Alerts): Nonspecific T wave
[3]; patient five, GPI-06-0005 (Breast Cancer), 8 mg/m^2 on Days 1, 8, and 15 of Cycle 2 and beyond, 6 accelerated doses, full wrapped cell: Fatigue, dysphagia, dizziness
  Related Adverse Events: Fatigue,
[3]; [5]
  Clinically Significant Lab Abnormalities: None
  Related SAEs: None
[3]; patient four, (Breast Cancer), 8 mg/m^2, full wrapped cell: Left anterior fascicular block, low QRS voltages, nonspecific T wave changes, possible left ventricular hypertrophy, possible anterior infarction, tachycardia, sinus arrhythmia
  ECG Findings (Machine Alerts): Left anterior
[3]; patient four, GPI-06-0005 (Breast Cancer), 8 mg/m^2 on Days 1, 8, and 15 of Cycle 2 and beyond, 5 accelerated doses, full wrapped cell: Fatigue, vomiting, anemia, anorexia
  Related Adverse Events: Fatigue,
[3]; patient one, (Multiple Myeloma), 10 mg/m^2
  Related SAEs: None
[3]; patient one, (Multiple Myeloma), 10 mg/m^2, full wrapped cell: Sinus tachycardia, nonspecific ST changes, low QRS voltages, junctional depression prior to baseline
  ECG Findings (Machine Alerts): Sinus tachycardia,
[3]; patient one, (Multiple Myeloma), 10 mg/m^2, full wrapped cell: Thrombocytopenia, anemia, neutropenia, increased serum creatinine, hyperpcalcemia
  Clinically Significant Lab Abnormalities: Thrombocytopenia,
[3]; patient one, GPI-08-0006 (Multiple Myeloma), 10 mg/m^2 on Days 1, 8, and 15 of Cycle 1 and beyond, 2 accelerated doses, full wrapped cell: Flushing, cold feeling, nausea, vomiting, back pain, canker sore, fatigue, UTI, hypokalemia, hypophosphatemia
  Related Adverse Events: Flushing,
[3]; patient three, (Multiple Myeloma), 10 mg/m^2
  Related SAEs: None
[3]; patient three, (Multiple Myeloma), 10 mg/m^2, full wrapped cell: Nonspecific T waves changes possibly due to myocardial ischemia, results consistent with baseline ECGs
  ECG Findings (Machine Alerts): Nonspecific T waves
[3]; patient three, (Multiple Myeloma), 10 mg/m^2, full wrapped cell: Thrombocytopenia, anemia, neutropenia
  Clinically Significant Lab Abnormalities: Thrombocytopenia,
[3]; patient three, GPI-08-0006 (Multiple Myeloma), 10 mg/m^2 on Days 1, 8, and 15 of Cycle 1 and beyond, 13 accelerated doses, full wrapped cell: Nausea, vomiting, flushing, constipation, headache, body aches, abdominal pain, diarrhea, bloating, vein erythema
  Related Adverse Events: Nausea,
[3]; [6]
  QTC (ECG machine alert): close to 450
  Related SAEs: None
[3]; patient two, (Multiple Myeloma), 10 mg/m^2, full wrapped cell: T wave changes, conduction defect of right bundle branch block, low QRS spatial velocity, QTC close to 450
  ECG Findings (Machine Alerts): T wave changes,
[3]; patient two, (Multiple Myeloma), 10 mg/m^2, full wrapped cell: Thrombocytopenia, anemia, neutropenia, increased serum creatinine
  Clinically Significant Lab Abnormalities: Thrombocytopenia,
[3]; patient two, GPI-08-0006 (Multiple Myeloma), 10 mg/m^2 on Days 1, 8, and 15 of Cycle 1 and beyond, 2 accelerated doses, full wrapped cell: Knee pain, headache, skin crawling, cold feet, malaise, bowel urgency, nausea, vomiting
  Related Adverse Events: Knee pain,
[3]; patient, 78 kg, 26 mg on days 1, 8, and 15 of 28 day cycle, accelerated dose Day 15 of cycle 8, full wrapped cell: Nausea, vomiting and diarrhoea, heamaturia
  Adverse Events reported directly after infusion: Nausea,
[3]; patient, 78 kg, 26 mg, accelerated dose Day 15 of cycle 8, full wrapped cell: Hypocalcaemia noted
  LAB: Hypocalcaemia
[3]; patient, 78 kg, 26 mg, accelerated dose Day 15 of cycle 8, full wrapped cell: Post infusion ECG - peaked T waves laterally and subtle ST depression laterally but otherwise normal ECG next day was normal
  ECG: Post infusion
[3]; patient, 95.8 Kg, 30.5 mg on days 1, 8, and 15 of 28 day cycle, accelerated dose Day 1 of cycle 8
  Adverse Events reported directly after infusion: None
[3]; patient, 95.8 Kg, 30.5 mg, accelerated dose Day 1 of cycle 8, asymptomatic
  lateral ST depression on post infusion ECG: of 1 mm.
[3]; patient, 95.8 Kg, 30.5 mg, accelerated dose Day 1 of cycle 8, full wrapped cell: No immediate effect but hypocalcaemia later
  LAB: No immediate
[3]; patient, 95.8 Kg, 30.5 mg, accelerated dose Day 1 of cycle 8, full wrapped cell: Post infusion ECG asymptomatic - showed some lateral ST depression of 1 mm. ECG 2 hours later showed improvement
  ECG: Post infusion
[3]; patient, 103 Kg, (Multiple Myeloma), 10 mg/m^2
  Related SAEs: None
[3]; patient, 103 Kg, (Multiple Myeloma), 10 mg/m^2, full wrapped cell: Nonspecific T wave changes, ST junctional depression
  ECG Findings (Machine Alerts): Nonspecific T wave
[3]; patient, 103 Kg, (Multiple Myeloma), 10 mg/m^2, full wrapped cell: Thrombocytopenia, anemia, neutropenia, hypoalbuminemia
  Clinically Significant Lab Abnormalities: Thrombocytopenia,
[3]; patient, 103 Kg, GPI-08-0006 (Multiple Myeloma), 10 mg/m^2 on Days 1, 8, and 15 of Cycle 1 and beyond, 4 accelerated doses, full wrapped cell: Nausea, thrombocytopenia, fatigue, vein erythema, vomiting
  Related Adverse Events: Nausea,
[3]; patient, 13 mg on days 1, 8, and 15 of 28 day cycle, accelerated dose Day 15 of cycle 2
  Adverse Events reported directly after infusion: None
[3]; patient, 13 mg, accelerated dose Day 15 of cycle 2, full wrapped cell: No abnormalities
  LAB: No
[3]; patient, 13 mg, accelerated dose Day 15 of cycle 2, full wrapped cell: Post dose ECGs taken on same day and next day, no abnormalities notes
  ECG: Post dose
[3]; patient, (Giant Cell), 12 mg/m^2
  Related SAEs: None
[3]; patient, (Melanoma), 8 mg/m^2
  Clinically Significant Lab Abnormalities: None
  Related SAEs: None
[3]; patient, (Melanoma), 8 mg/m^2, full wrapped cell: Nonspecific T wave changes possibly due to myocardial ischemia, low QRS voltages, sinus tachycardia, possible inferior infarction
  ECG Findings (Machine Alerts): Nonspecific T wave
[3]; [7]
  Clinically Significant Lab Abnormalities: None
  Related SAEs: None
[3]; patient, (Multiple Myeloma), 10 mg/m^2, full wrapped cell: T wave inversion, low QRS voltages, reversed R wave progression
  ECG Findings (Machine Alerts): T wave inversion,
[3]; patient, (Multiple Myeloma), 10 mg/m^2, full wrapped cell: Thrombocytopenia, anemia, neutropenia, hypoalbuminemia, hypokalemia
  Clinically Significant Lab Abnormalities: Thrombocytopenia,
[3]; patient, (Multiple Myeloma), 10 mg/m^2, full wrapped cell: Vomiting, headache, dehydration
  Related SAEs: Vomiting,
[3]; patient, (NHL), 8 mg/m^2
  Clinically Significant Lab Abnormalities: None
  Related SAEs: None
[3]; patient, (NHL), 8 mg/m^2, full wrapped cell: Probable normal variant, borderline lateral T wave changes, low QRS voltages
  ECG Findings (Machine Alerts): Probable normal
[3]; patient, (Ovarian Cancer), 12 mg/m^2, full wrapped cell: Atrial fibrillation
  Related SAEs: Atrial
[3]; patient, GPI-06-0005 (Melanoma), 8 mg/m^2 on Days 1, 8, and 15 of Cycle 2 and beyond, 3 accelerated doses, full wrapped cell: Fatigue, vomiting
  Related Adverse Events: Fatigue,
[3]; patient, GPI-06-0005 (NHL), 8 mg/m^2 on Days 1, 8, and 15 of Cycle 2 and beyond, 3 accelerated doses
  Related Adverse Events: Fatigue
[3]; patient, GPI-08-0006 (Multiple Myeloma), 8 mg/m^2 on Days 1, 8, and 15 of Cycle 1 and beyond, 4 accelerated doses
  ECG Findings (Machine Alerts): None
[3]; patient, GPI-08-0006 (Multiple Myeloma), 10 mg/m^2 on Days 1, 8, and 15 of Cycle 1 and beyond, 1 accelerated dose, full wrapped cell: Nausea, vomiting, headache, dehydration
  Related Adverse Events: Nausea,
[3]; unit doses over less than about one hour
  rate of serious adverse events vs unit doses administered over about 4 hours: without increasing the rate of serious adverse events
